Source: PMC7451048 (Drug metabolism letters, 2019)

Legend:
OATP4A1 = target: T1, OATP4A1 (Homo sapiens, UniProt Q96BD0); test: Cellular uptake assay, HEK/OATP4A1 vs HEK empty vector cells
T1 sequence (Q96BD0 1-722): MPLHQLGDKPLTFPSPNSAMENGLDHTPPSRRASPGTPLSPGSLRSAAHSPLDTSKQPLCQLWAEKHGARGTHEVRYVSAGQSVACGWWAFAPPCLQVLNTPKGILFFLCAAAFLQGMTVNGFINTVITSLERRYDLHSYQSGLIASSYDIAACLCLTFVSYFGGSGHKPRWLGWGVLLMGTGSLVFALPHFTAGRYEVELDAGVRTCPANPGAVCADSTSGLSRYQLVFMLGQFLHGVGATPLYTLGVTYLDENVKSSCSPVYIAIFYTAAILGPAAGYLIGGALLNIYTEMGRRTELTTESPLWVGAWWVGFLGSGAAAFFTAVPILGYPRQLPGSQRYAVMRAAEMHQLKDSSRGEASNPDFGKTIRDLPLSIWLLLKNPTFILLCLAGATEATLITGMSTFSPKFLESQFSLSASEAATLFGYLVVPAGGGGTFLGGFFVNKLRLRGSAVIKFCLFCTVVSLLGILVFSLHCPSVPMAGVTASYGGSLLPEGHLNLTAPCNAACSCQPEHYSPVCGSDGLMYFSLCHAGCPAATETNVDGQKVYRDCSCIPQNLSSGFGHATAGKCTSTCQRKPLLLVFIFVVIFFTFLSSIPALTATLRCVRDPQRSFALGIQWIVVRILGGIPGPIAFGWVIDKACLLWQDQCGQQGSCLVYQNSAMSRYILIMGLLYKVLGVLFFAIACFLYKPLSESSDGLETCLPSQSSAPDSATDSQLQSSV

P-gp = P-gp (Homo sapiens, UniProt P08183); test: Plasma membrane vesicle transport assay, P-gp vesicles; format: in vitro ADME; conditions: for Difference in P-gp vesicle uptake between ATP and AMP: 10 μM, 1 min (Fig. 9)
Sequence of P-gp (P08183 whole entry): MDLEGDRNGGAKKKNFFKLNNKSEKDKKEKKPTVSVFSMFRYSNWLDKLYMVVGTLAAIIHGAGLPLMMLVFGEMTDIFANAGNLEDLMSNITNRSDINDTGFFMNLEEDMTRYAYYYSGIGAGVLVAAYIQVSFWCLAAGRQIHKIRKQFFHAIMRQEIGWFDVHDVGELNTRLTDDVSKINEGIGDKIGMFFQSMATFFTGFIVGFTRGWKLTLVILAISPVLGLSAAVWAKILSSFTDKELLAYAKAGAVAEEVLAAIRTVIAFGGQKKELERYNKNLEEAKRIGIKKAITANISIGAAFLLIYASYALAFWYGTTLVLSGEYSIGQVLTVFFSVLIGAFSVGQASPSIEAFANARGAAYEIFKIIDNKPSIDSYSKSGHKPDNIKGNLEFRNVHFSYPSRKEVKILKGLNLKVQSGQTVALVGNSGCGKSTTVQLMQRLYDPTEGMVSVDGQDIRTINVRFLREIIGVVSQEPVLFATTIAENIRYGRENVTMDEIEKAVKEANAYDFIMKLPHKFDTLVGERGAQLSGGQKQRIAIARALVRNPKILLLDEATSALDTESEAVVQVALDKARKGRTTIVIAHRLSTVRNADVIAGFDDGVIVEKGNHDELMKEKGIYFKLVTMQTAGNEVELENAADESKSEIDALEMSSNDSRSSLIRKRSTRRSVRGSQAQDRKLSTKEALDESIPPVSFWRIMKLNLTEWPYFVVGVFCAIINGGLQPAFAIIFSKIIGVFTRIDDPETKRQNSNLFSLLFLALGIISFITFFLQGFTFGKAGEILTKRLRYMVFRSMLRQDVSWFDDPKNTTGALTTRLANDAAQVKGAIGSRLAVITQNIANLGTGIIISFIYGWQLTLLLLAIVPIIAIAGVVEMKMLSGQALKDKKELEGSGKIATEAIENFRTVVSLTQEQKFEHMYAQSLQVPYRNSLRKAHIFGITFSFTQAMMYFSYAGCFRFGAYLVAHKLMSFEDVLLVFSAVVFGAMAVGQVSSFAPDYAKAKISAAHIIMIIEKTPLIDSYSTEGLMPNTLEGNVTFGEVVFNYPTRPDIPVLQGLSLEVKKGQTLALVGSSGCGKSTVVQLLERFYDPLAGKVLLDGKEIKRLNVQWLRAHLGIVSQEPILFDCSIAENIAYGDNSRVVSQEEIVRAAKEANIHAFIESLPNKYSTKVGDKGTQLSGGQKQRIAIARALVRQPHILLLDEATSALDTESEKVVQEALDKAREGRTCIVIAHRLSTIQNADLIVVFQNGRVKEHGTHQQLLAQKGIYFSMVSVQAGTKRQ

[1] = co-administration of clopidogrel and ticlopidine; ref [25]; cited from earlier work
[2] = higher than BUP; ref [10], [13], [16], [17]; cited from earlier work

Row | Compound | Substrate of OATP4A1 (conclusion) (OATP4A1) | Substrate of P-gp (conclusion) (P-gp) | Difference in P-gp vesicle uptake between ATP and AMP (P-gp) | Decrease in AUC [1] | Circulating concentration relative to the parent drug [2]
1 | CC(NC(C)(C)C)C(O)c1cccc(Cl)c1 (stereo not drawn) [EB, Erythrohydrobupropion] | not substrates | not substrates | No significant differences | – | –
2 | C[C@H]1NC(C)(C)CO[C@]1(O)c1cccc(Cl)c1 [OHB, Hydroxybupropion] | not substrates | not substrates | No significant differences | 60–89% | 3 – 30 fold
3 | C[C@H](NC(C)(C)C)[C@@H](O)c1cccc(Cl)c1 [TB, Threohydrobupropion] | not substrates | not substrates | No significant differences | – | 3 – 30 fold
